Results: US20240226115A1, “AXL INHIBITOR COMPOUNDS” (ARCUS BIOSCIENCES, INC., priority 2021, published 2024)
pIC50: −log10 of the molar value.

Experiments:
[1] = target: T1, Axl (Homo sapiens, UniProt P30530); assay: HTRF KinEASE-TK biochemical potency, AXL; design: purchased Invitrogen; details: 5 nM AXL, 700 μM ATP
T1 sequence (P30530 26-894): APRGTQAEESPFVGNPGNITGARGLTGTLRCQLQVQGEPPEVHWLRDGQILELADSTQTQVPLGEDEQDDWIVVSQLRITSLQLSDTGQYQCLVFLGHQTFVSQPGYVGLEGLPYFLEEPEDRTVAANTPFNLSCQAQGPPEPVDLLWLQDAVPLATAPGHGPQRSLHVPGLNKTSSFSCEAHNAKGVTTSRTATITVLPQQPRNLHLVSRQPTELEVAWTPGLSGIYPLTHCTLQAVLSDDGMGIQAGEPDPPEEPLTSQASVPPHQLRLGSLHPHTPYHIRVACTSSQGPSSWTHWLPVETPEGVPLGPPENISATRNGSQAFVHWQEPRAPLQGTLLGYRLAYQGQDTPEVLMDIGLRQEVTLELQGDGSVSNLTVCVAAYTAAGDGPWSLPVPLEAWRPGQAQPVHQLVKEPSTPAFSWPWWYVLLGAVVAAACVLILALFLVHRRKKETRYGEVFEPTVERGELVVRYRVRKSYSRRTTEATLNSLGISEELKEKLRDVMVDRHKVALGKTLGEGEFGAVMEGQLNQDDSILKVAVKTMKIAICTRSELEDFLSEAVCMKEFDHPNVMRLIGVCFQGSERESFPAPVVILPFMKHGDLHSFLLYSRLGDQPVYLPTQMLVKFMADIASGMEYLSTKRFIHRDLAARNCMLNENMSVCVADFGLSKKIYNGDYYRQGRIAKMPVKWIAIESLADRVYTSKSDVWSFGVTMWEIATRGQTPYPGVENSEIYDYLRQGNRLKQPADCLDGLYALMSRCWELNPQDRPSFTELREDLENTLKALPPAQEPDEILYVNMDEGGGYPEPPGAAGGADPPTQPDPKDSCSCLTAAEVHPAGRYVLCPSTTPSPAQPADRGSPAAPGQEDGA
Description: Purified recombinant human AXL, TYRO3 and MER proteins were purchased from Invitrogen™. 10 nM AXL, 2 nM TYRO3 or MER were incubated with varying concentrations of compounds in 50 mM HEPES, pH 7.4, 10 mM MgCl2, 0.01% BSA, 1 mM DTT and 2% DMSO in a total volume of 20 μl in a 384-well microplate (Corning™ #3640) at RT for 1 h. The AXL, TYRO3 and MER enzymatic reaction was initiated by transferring 10 μl of enzyme and compound mixture into 10 μl of 1.6 μM TK Substrate-biotin (HTRF® KinEASE-TK kit, Cisbio) and 1400 μM ATP pre-incubated in 50 mM HEPES, pH 7.4, 10 mM MgCl2, 0.01% BSA, 1 mM DTT in a 384-well microplate (Corning™ #3640) at RT, giving the final reaction conditions: 5 nM AXL, 1 nM TYRO3 or MER, 800 nM TK Substrate-biotin and 700 μM ATP in 50 mM HEPES, pH 7.4, 10 mM MgCl2, 0.01% BSA, 1 mM DTT and 1% DMSO with varying concentrations of compounds. Following 2 h incubation at RT, the AXL, TYRO3 and MER enzymatic reaction was stopped by transfer of 10 μl of reaction into 10 μl of detection mix (400 nM Streptavidin-XL665, 200-fold dilution TK Antibody-Cryptate and detection buffer, HTRF® KinEASE-TK kit, Cisbio) in a white 384-well microplate (Perkin Elmer, OptiPlate 384). After 1 h incubation at RT, the plate was put into a plate reader (Evision) to read at 665/620 nm (acceptor/donor) for HTRF. The value of the DMSO blank (MIN inhibition=100% activity) was used as a negative control. The positive control was established by adding 5 μl of enzyme and DMSO mixture into 10 μl of detection mix followed by addition of 5 μl of TK Substrate-biotin and ATP mixture (MAX inhibition=0% activity). To calculate the percent activity, Equation 1 was used. Ratio665/620 is the value at a given compound concentration: […]

[2] = target: T1, Axl; assay: Axl NanoBRET intracellular kinase assay (Cell Binding); design: host or cells: HEK-293; details: HEK-293 cells transfected with Axl-NanoLuc fusion vector; displacement of K-5 NanoBRET tracer
Description: Axl NanoBRET™ intracellular kinase assay (Promega, N2540) was performed according to manufacturer's recommendation. In brief, HEK-293 cells are transiently transfected with Axl-NanoLuc fusion vector (Promega, NV1071), utilizing Fugene HD transfection reagent (Promega, E2311) a day before experiment following manufacturer's recommendation.
The day of the assay, the cells were collected and resuspended in Opti-MEM media (ThermoFisher, 31985070) at 2e5 cells/mL concentration. Testing compounds were serial diluted and dispensed into a white 384 well polystyrene plate at 200 nL in 100% DMSO. 40 μL of resuspended cells is then added per well for a final condition of 8K cells/well with 0.5% DMSO. After one-hour compound pre-incubation at 37° C. and 5% CO2, cells were further incubated with 0.35 μM K-5 NanoBRET tracer for two-hours at 37° C. and 5% CO2. […] of 3× substrate plus Inhibitor solution was prepared according to kits manual and added to the cells followed by a 30 second pulse centrifugation spin. The plate was then immediately read utilizing an Envision (Perkin Elmer) plate reader. The BRET signal is measured by taking the ratio of the emissions reading at 610 nm and 450 nm. Compound binding is based on the decrease BRET signal caused by the displacement of the K-5 tracer. […] IC50 value of compounds was determined by 4-parameter non-linear regression fitting of percent activity in GraphPad Prism software.

| pIC50 [1] | pIC50 [2] | SMILES |
| --- | --- | --- |
| > 7.00 | 6.00 to 7.00 | CC(C)(O)C(=O)N1CCc2ccc(-c3cnc4[nH]nc(-c5ccc6c(c5)OCCNC6=O)c4c3)cc2CC1 [Example 19, 8-(5-(3-(2-Hydroxy-2-methylpropanoyl)-2,3,4,5-tetrahydro-1H-benzo[d]azepin-7-yl)-1H-pyrazolo[3,4-b]pyridin-3-yl)-3,4-dihydrobenzo[f][1,4]oxazepin-5(2H)-one] |
| > 7.00 | 6.00 to 7.00 | O=C1NCCOc2cc(-c3n[nH]c4ncc(-c5ccc6c(c5)CCN(C5CC5)CC6)cc34)ccc21 [Example 20, 8-(5-(3-Cyclopropyl-2,3,4,5-tetrahydro-1H-benzo[d]azepin-7-yl)-1H-pyrazolo[3,4-b]pyridin-3-yl)-3,4-dihydrobenzo[f][1,4]oxazepin-5(2H)-one] |
| > 7.00 | 6.00 to 7.00 | O=C1NCCOc2cc(-c3n[nH]c4ncc(-c5ccc6c(c5)CCN(C5CC5)C6)cc34)ccc21 [Example 21, 8-(5-(2-Cyclopropyl-1,2,3,4-tetrahydroisoquinolin-6-yl)-1H-pyrazolo[3,4-b]pyridin-3-yl)-3,4-dihydrobenzo[f][1,4]oxazepin-5(2H)-one] |
| > 7.00 | > 7.00 | CC1(N2CCCC2)CCc2ccc(-c3cnc4[nH]nc(-c5ccc6c(c5)OCCNC6=O)c4c3)cc2CC1 (stereo not drawn) [Example 22, 8-{5-[7-Methyl-7-(pyrrolidin-1-yl)-6,7,8,9-tetrahydro-5H-benzo[7]annulen-2-yl]-1H-pyrazolo[3,4-b]pyridin-3-yl}-2,3,4,5-tetrahydro-1,4-benzoxazepin-5-one] |
| > 7.00 | > 7.00 | C[C@@H]1CCCN1C1(C)CCc2ccc(-c3cnc4[nH]nc(-c5ccc6c(c5)OCCNC6=O)c4c3)cc2CC1 (stereo partly drawn) [Example 23, 8-(5-{7-Methyl-7-[(2R)-2-methylpyrrolidin-1-yl]-6,7,8,9-tetrahydro-5H-benzo[7]annulen-2-yl}-1H-pyrazolo[3,4-b]pyridin-3-yl)-2,3,4,5-tetrahydro-1,4-benzoxazepin-5-one] |
| > 7.00 | > 7.00 | C[C@H]1CCCN1C1(C)CCc2ccc(-c3cnc4[nH]nc(-c5ccc6c(c5)OCCNC6=O)c4c3)cc2CC1 (stereo partly drawn) [Example 24, 8-(5-{7-Methyl-7-[(2S)-2-methylpyrrolidin-1-yl]-6,7,8,9-tetrahydro-5H-benzo[7]annulen-2-yl}-1H-pyrazolo[3,4-b]pyridin-3-yl)-2,3,4,5-tetrahydro-1,4-benzoxazepin-5-one] |
| > 7.00 | > 7.00 | CC[C@@H]1CCCN1C1CCc2ccc(-c3cnc4[nH]nc(-c5ccc6c(c5)OCCNC6=O)c4c3)cc2CC1 (stereo partly drawn) [Example 25, 8-(5-{7-[(2R)-2-Ethylpyrrolidin-1-yl]-6,7,8,9-tetrahydro-5H-benzo[7]annulen-2-yl}-1H-pyrazolo[3,4-b]pyridin-3-yl)-2,3,4,5-tetrahydro-1,4-benzoxazepin-5-one] |
| > 7.00 | 6.00 to 7.00 | CC1(O)CCOc2cc(-c3n[nH]c4ncc(-c5ccc6c(c5)CCN(C5CCCC5)CC6)cc34)ccc21 (stereo not drawn) [Example 26, 7-[5-(3-Cyclopentyl-2,3,4,5-tetrahydro-1H-3-benzazepin-7-yl)-1H-pyrazolo[3,4-b]pyridin-3-yl]-4-methyl-3,4-dihydro-2H-1-benzopyran-4-ol] |
| > 7.00 | 6.00 to 7.00 | CC1(O)CCCCc2cc(-c3n[nH]c4ncc(-c5ccc6c(c5)CCN(C5CCCC5)CC6)cc34)ccc21 (stereo not drawn) [Example 27, 2-[5-(3-Cyclopentyl-2,3,4,5-tetrahydro-1H-3-benzazepin-7-yl)-1H-pyrazolo[3,4-b]pyridin-3-yl]-5-methyl-6,7,8,9-tetrahydro-5H-benzo[7]annulen-5-ol] |
| > 7.00 | 6.00 to 7.00 | CC1(O)CCCOc2cc(-c3n[nH]c4ncc(-c5ccc6c(c5)CCN(C5CCCC5)CC6)cc34)ccc21 (stereo not drawn) [Example 28, (8-[5-(3-Cyclopentyl-2,3,4,5-tetrahydro-1H-3-benzazepin-7-yl)-1H-pyrazolo[3,4-b]pyridin-3-yl]-5-methyl-2,3,4,5-tetrahydro-1-benzoxepin-5-ol)] |
| > 7.00 | > 7.00 | C[C@@H]1CCCN1C1CCc2ccc(-c3cnc4[nH]nc(-c5ccc6c(c5)OCCC6(C)O)c4c3)cc2CC1 (stereo partly drawn) [Example 29, 4-Methyl-7-(5-{7-[(2R)-2-Methylpyrrolidin-1-yl]-6,7,8,9-tetrahydro-5H-benzo[7]annulen-2-yl}-1H-pyrazolo[3,4-b]pyridin-3-yl)-3,4-dihydro-2H-1-benzopyran-4-ol] |
| > 7.00 | > 7.00 | CC1(O)CCc2cc(-c3n[nH]c4ncc(-c5ccc6c(c5)CC[C@@H](N5CCCC5)CC6)cc34)ccc21 (stereo partly drawn) [Example 30, 1-Methyl-5-{5-[(7S)-7-(pyrrolidin-1-yl)-6,7,8,9-tetrahydro-5H-benzo[7]annulen-2-yl]-1H-pyrazolo[3,4-b]pyridin-3-yl}-2,3-dihydro-1H-inden-1-ol] |
| > 7.00 | > 7.00 | CC1(O)CCOc2cc(-c3n[nH]c4ncc(-c5ccc6c(c5)CC[C@@H](N5CCCC5)CC6)cc34)ccc21 (stereo partly drawn) [Example 31, 4-Methyl-7-{5-[(7S)-7-(pyrrolidin-1-yl)-6,7,8,9-tetrahydro-5H-benzo[7]annulen-2-yl]-1H-pyrazolo[3,4-b]pyridin-3-yl}-3,4-dihydro-2H-1-benzopyran-4-ol] |
| > 7.00 | > 7.00 | CC1(C)NS(=O)(=O)c2cc(-c3n[nH]c4ncc(-c5ccc6c(c5)CCC(N5CCCC5)CC6)cc34)ccc21 (stereo not drawn) [Example 32, 3,3-Dimethyl-6-{5-[7-(pyrrolidin-1-yl)-6,7,8,9-tetrahydro-5H-benzo[7]annulen-2-yl]-1H-pyrazolo[3,4-b]pyridin-3-yl}-2,3-dihydro-1λ^6,2-benzothiazole-1,1-dione] |
| > 7.00 | > 7.00 | C[C@@H]1CCCN1C1CCc2ccc(-c3cnc4[nH]nc(-c5ccc6c(c5)S(=O)(=O)NC6(C)C)c4c3)cc2CC1 (stereo partly drawn) [Example 33, 3,3-Dimethyl-6-(5-{7-[(2R)-2-methylpyrrolidin-1-yl]-6,7,8,9-tetrahydro-5H-benzo[7]annulen-2-yl}-1H-pyrazolo[3,4-b]pyridin-3-yl)-2,3-dihydro-1λ^6,2-benzothiazole-1,1-dione] |
